Common to all, as to assay type: in vivo, human
The subject of one experiment is Nox2. As to the kind of experiment: Serum Nox2 measured as soluble Nox2-derived peptide (sNox2dp) by ELISA, post-prandial cross-over study. As to conditions: healthy subjects (n=20), 20 mg immediately before lunch, T120 (2 h after meal) vs T0. Here is the method: (§1) The design was a randomized, double blind, placebo controlled, crossover study (FIG. 1). Participants were randomized to receive 20 mg of oleuropein or 20 mg of placebo immediately before a lunch. The randomization was carried out by a procedure based on a random numeric sequence. Placebo and active capsules were identical in appearance and both were odourless. The quality control on both capsules was performed confirming their safety. None of the participants were receiving any vitamin or antioxidant supplements, statin or antiplatelet drugs in the month preceding the beginning of the study. […] Participants were assessed at baseline (T0) and two hours after lunch (T120). Glycaemic profile, which included glucose, insulin, dipeptidyl-peptidase-4 (DPP-4) activity and glucagon-like peptide-(GLP-1) and oxidative stress, which included sNox2-dp, 8-iso-PGF2α and platelet p47phox phosphorylation, were analysed before and two hours after meal. […]
Serum Nox2 was measured as soluble Nox2-derived peptide (sNOX2dp) with an ELISA method, which was partly modified in comparison to that previously reported (Pignatelli et al., 2010; WO 2010142794 A1). […]
4) quantification of immobilized antibody enzyme conjugates by monitoring HRP activities in the presence of the substrate 3,3′,5,5′-tetramethylbenzidine (TMB). […] Values were expressed as pg/ml; intra-assay and inter-assay coefficients of variation were <10%.

A further experiment concerns 8-iso-PGF2α. As to the kind of experiment: Serum isoprostanes (8-iso-PGF2α-III) enzyme immunoassay, post-prandial cross-over study. As to conditions: healthy subjects (n=20), 20 mg immediately before lunch, T120 vs T0. Here is the method: as §1, with “study. Others exclusion criteria were: i) presence of malignancy, ii) presence of chronic inflammatory diseases, iii) alcohol intake, iv) smoking, v) pregnant or breast-feeding, vi) age less than 18 years.” for “study.”
Serum isoprostanes (8-iso-PGF2α-III) were measured by the enzyme immunoassay method (DRG International) and expressed as pmol/L. Intra-assay and inter-assay coefficients of variation were <10%.

The subject of another experiment is p47phox. As to the kind of experiment: Western blot analysis of platelet p47phox phosphorylation, post-prandial cross-over study. As to conditions: healthy subjects (n=5), 20 mg immediately before lunch, T120 vs T0. Here is the method: as §1
p47^phox phosphorylation was analysed in platelets prepared as previously described [13 Carnevale et al., 2014 a)]. […] Then, the membranes were incubated with goat anti-rabbit secondary antibody (Santa Cruz Biotechnology—Product Code sc2004, 1:5000) or with goat anti-mouse secondary antibody (Santa Cruz Biotechnology—Product Code sc2005, 1:5000) and then the immune complexes were detected by enhanced chemiluminescence substrate. […]

A short description of experiment [1]: Serum glucose concentration, post-prandial cross-over study. Here is the method: as §1, with “study. Others exclusion criteria were: i) presence of malignancy, ii) presence of chronic inflammatory diseases, iii) alcohol intake, iv) smoking, v) pregnant or breast-feeding, vi) age less than 18 years.” for “study.”
(§2) Glucose and insulin were measured in serum samples using ELISA commercial Kit (Arbor Assay and DRG International, respectively). Glucose values were expressed as mg/dl whereas insulin values were expressed as μIU/ml.

The next experiment deals with insulin. As to the kind of experiment: Serum insulin concentration, post-prandial cross-over study. To be noted: healthy subjects (n=20), 20 mg immediately before lunch, T120 vs T0. On the procedure:
as §1, with “study. Others exclusion criteria were: i) presence of malignancy, ii) presence of chronic inflammatory diseases, iii) alcohol intake, iv) smoking, v) pregnant or breast-feeding, vi) age less than 18 years.” for “study.”
as §2

The next experiment relates to GLP1. As to the kind of experiment: Serum glucagon like peptide-1 (GLP1) concentration, post-prandial cross-over study. As to conditions: healthy subjects (n=20), 20 mg immediately before lunch, T120 vs T0. On the procedure: as §1, with “study. Others exclusion criteria were: i) presence of malignancy, ii) presence of chronic inflammatory diseases, iii) alcohol intake, iv) smoking, v) pregnant or breast-feeding, vi) age less than 18 years.” for “study.”
Commercial ELISA Kit (DRG International) was used for the quantitative determination of bioactive GLP1 (7-36) and (9-36) levels in serum. GLP1 values are expressed as pmol/L.

In another experiment the test system is DPP-4. As to the kind of experiment: Serum dipeptidyl peptidase-4 (DPP-4) activity, post-prandial cross-over study. As to conditions: healthy subjects (n=20), 20 mg immediately before lunch, T120 vs T0. Here is the method: as §1, with “study. Others exclusion criteria were: i) presence of malignancy, ii) presence of chronic inflammatory diseases, iii) alcohol intake, iv) smoking, v) pregnant or breast-feeding, vi) age less than 18 years.” for “study.”
DDP4 activity was evaluated in serum samples by a commercial assay (Sigma Aldrich). […] DDP4 activity was expressed as μU/ml, where one unit of DPP4 is the amount of enzyme that will hydrolyze the DPP4 substrate to yield 1.0 μmole of AMC per minute at 37° C.

SMILES strings stand for the structures.

In the case of `C/C=C1/[C@H](O[C@@H]2O[C@H](CO)[C@@H](O)[C@H](O)[C@H]2O)OC=C(C(=O)OC)[C@H]1CC(=O)OCCc1ccc(O)c(O)c1` [oleuropein], the “sNox2-dp, Δ change compared to baseline” value with Nox2 was determined as 25%. Further, in the experiment on 8-iso-PGF2α, the “8-iso-PGF2α, Δ change compared to baseline” value came out at 8%. In addition, in the experiment with p47phox, the “platelet p47phox phosphorylation, Δ change compared to baseline” value amounted to 42%. Besides, the “blood glucose, Δ change compared to baseline” value in experiment [1] (healthy subjects (n=20), 20 mg immediately before lunch, T120 vs T0) is on record as 2%. In experiment [1] (healthy subjects, 20 mg versus placebo, post-prandial), the “average reduction of glucose” value was found to be 14 mg/dL. Moreover, in the experiment with insulin, the “blood insulin, Δ change compared to baseline” value was determined as 116%. Further, in the experiment with GLP1, the “GLP1, Δ change compared to baseline” value turned out to be 19%. Further, the “DPP-4 activity, Δ change compared to baseline” value with DPP-4 came to 35%.

The values above are taken from patent US20210169910A1, “OLEUROPEIN FOR USE IN REDUCING POST-PRANDIAL GLYCAEMIA” (Università degli Studi di Roma "La Sapienza", priority 2017, published 2021).
